In BigSolDB 2.1:

O=C(O)CCCC(=O)O
Settings | solubility (mole fraction)
in cyclohexanone, 294.15 K | 0.153
in cyclohexanone, 298.45 K | 0.167
in cyclohexanone, 302.45 K | 0.181
in cyclohexanone, 307.15 K | 0.2
in cyclohexanone, 312.45 K | 0.238
in cyclohexanone, 317.05 K | 0.27
in cyclohexanone, 321.75 K | 0.309
in cyclohexanone, 326.35 K | 0.351
in cyclohexanone, 331.55 K | 0.401
in cyclohexanone, 335.25 K | 0.437
in propionic acid, 289.55 K | 0.238
in propionic acid, 294.15 K | 0.272
in propionic acid, 302.15 K | 0.337
in propionic acid, 305.65 K | 0.365
in propionic acid, 309.15 K | 0.395
in propionic acid, 312.85 K | 0.42
in propionic acid, 316.15 K | 0.447
in propionic acid, 319.65 K | 0.474
in propionic acid, 323.65 K | 0.509
in propionic acid, 332.15 K | 0.587
in ε-caprolactone, 286.25 K | 0.124
in ε-caprolactone, 291.55 K | 0.153
in ε-caprolactone, 296.15 K | 0.183
in ε-caprolactone, 300.25 K | 0.214
in ε-caprolactone, 304.45 K | 0.245
in ε-caprolactone, 308.55 K | 0.274
in ε-caprolactone, 312.45 K | 0.304
in ε-caprolactone, 316.05 K | 0.334
in ε-caprolactone, 320.25 K | 0.364
in ε-caprolactone, 325.25 K | 0.402
